“Also recorded” adds a separate entry of the source.
Assays:
[1] = test system: LPS-induced nitrite in RAW 264.7 cells; test: LPS-induced nitrite production in RAW 264.7 cells (Griess reagent / fluorometric kit); format: cell-based, mouse; details: for Nitrite, % Change versus Control (± s.e.m.): 10 uM; for nitrite level, % of vehicle control: percentage of vehicle control value (control = 100%), mean ± S.E.M., n = 3; for nitrite inhibitory activity (comparison in words): tetrafluoro vs corresponding difluoro or stereoisomer; for nitrite levels (in words): six-compound pomalidomide grouping, RAW cell assay, FIGS. 12-13
Experimental: Nitrite ion detection in drug treated […] cell culture media: To measure the levels of nitrite ion NO2—) the Griess Reagent System (Promega, Madison, WI, Cat #G2930) was utilized. The protocol followed was that recommended by the manufacturer. In brief a NO2— ion standard curve was prepared in culture media of the same composition to that used for the cell culture study. The concentration range of the standard curve was from 1.5 µM to 100 µM. Equal volumes (50 μL) of standards and unknown samples were added to clear 96 well plates in duplicate. Then 50 μL of sulfanilamide solution was added to each well and the plate was covered and incubated in the dark for 10 min. After the incubation period 50 μL of N-1-napthylethylenediamine dihydrochloride solution was added to each well and the plate was incubated in dark for a further 10 min. After this incubation, the plate was read at 550 nm on a SPECTRAmax PLUS plate reader and the absorbances were used to generate a NO2— standard curve and the NO2— ion levels of the unknown samples are determined using SoftMax Pro V5, Molecular Devices.
Most neurons are highly vulnerable to RNS and ROS. Nitric oxide (NO) is one of RNSs, which is very short lived and cannot be readily measured. However, nitrite is a stable end product of nitric oxide metabolism. Therefore, nitrite acts as a surrogate measure of NO. The Griess Reagent System (Promega Corporation, Madison, WI) can be applied to measure nitrite levels in culture media following the manufacturer's protocol, and this system was used in the present study as it is a more sensitive assay compared to quantifying actions on TNF-α by ELISA assay. […] This challenge induces high level of TNF-α protein accompanied by a robust generation of nitrite.
(§1) Cells were propagated as described by ATCC guidelines.

[2] = test system: RAW 264.7 cells; test: Cell viability of drug treated RAW 264.7 cells (CellTiter 96 AQueous One, MTS); details: for Viability, % Change versus Control (± s.e.m.): 10 uM; for Cell Viability % Δ: RAW 264.7 cells, percentage of vehicle control value, mean ± S.E.M., n = 3
[3] = test system: TNF-α; test: LPS-induced TNF-α production in RAW 264.7 cells (ELISA); format: cell-based, mouse; details: for TNF-α % Δ: percentage of vehicle control value (control = 100%), mean ± S.E.M., n = 3; for TNF-a, % Change versus Control (± s.e.m.): 10 uM
Experimental: Enzyme-linked immunosorbent assay for TNF-α protein: Media TNF-α levels were measured by use of the Biolegend ELISA MAX Set Delux ELISA (#430904). The protocol used was that recommended by the manufacturer. In brief, a day prior to performing the assay, a 96 well plate was coated with a capture antibody directed against TNF-α. The following day the assay plate was washed and blocked with the kit blocking agent for 1 h while being mixed on a plate shaker at 200 rpm (all incubations were mixed at 200 rpm unless stated otherwise). A TNF-α protein standard curve was prepared in the assay diluent following the kit instructions and unknown media samples were likewise diluted in the same assay diluent. After blocking, the plate was washed and then both the standards and unknown media samples were added to the plate in duplicate. The standards and unknown samples were incubated for 2 h. After the incubation, the plate was washed and then the biotin labeled detection antibody was added to each well and incubated for a further 1 h. After this incubation, the avidin-HRP conjugate complex was added to each well and incubated for 30 min. The plate was washed and the chromogenic substrate 3,3′,5,5′-tetramethylbenzidine solution was added to each well. At this point the plate was covered and incubated in the dark for 15 min, with no mixing. After 15 min the chromogenic reaction was stopped by the addition of 2 N H2SO4 and the absorbance was read at 450 nm and for background subtractions at 570 nm, on a SPECTRAmax PLUS plate reader. The absorbances were used to generate a TNF-α a protein standard curve and the protein levels in the unknown samples were determined using SoftMax Pro V5, Molecular Devices.
as §1

[4] = 1 μM, LPS-challenged RAW 264.7 cells
[5] = LPS-activated RAW 264.7 cells (Table 9)
[6] = 10 μM, LPS-challenged RAW 264.7 cells
[7] = 30 μM, LPS-challenged RAW 264.7 cells

## Nc1ccc(F)c2c1C(=O)N(C1CCC(=O)NC1=O)C2=O (stereo not drawn) [Compound 26, 4-amino-2-(2,6-dioxopiperidin-3-yl)-7-fluoroisoindoline-1,3-dione]
[1]; LPS-activated RAW 264.7 cells
  Nitrite, % Change versus Control (± s.e.m.): 90.3 ± 3.7%
[2]; LPS-activated RAW 264.7 cells
  Viability, % Change versus Control (± s.e.m.): 100.9 ± 1.1%

## C[C@H]1[C@H](N2C(=O)c3c(F)c(F)c(F)c(F)c3C2=O)C[C@@H]2C[C@H]1C2(C)C [Compound 11, 4,5,6,7-Tetrafluoro-2-((1R,2R,3R,5S)-2,6,6-trimethylbicyclo[3.1.1]heptan-3-yl) isoindoline-1,3-dione]
[1]; [4]
  nitrite level, % of vehicle control: 48 ± 2%
[1]; 1 μM
  nitrite inhibitory activity (comparison in words): more potent nitrite inhibitory activity
[3]; [4]
  TNF-α % Δ: 76 ± 2%
[2]; 1 μM
  Cell Viability % Δ: 90 ± 4%

## CC(C)Nc1ccc(F)c2c1C(=O)N(C1CCC(=S)NC1=O)C2=O (stereo not drawn) [Compound 27, 4-fluoro-7-(isopropylamino)-2-(2-oxo-6-thioxopiperidin-3-yl) isoindoline-1,3-dione]
[1]; LPS-activated RAW 264.7 cells
  Nitrite, % Change versus Control (± s.e.m.): 74.8 ± 1.2%
[3]; LPS-activated RAW 264.7 cells
  TNF-a, % Change versus Control (± s.e.m.): 94.4 ± 2.8%
[2]; LPS-activated RAW 264.7 cells
  Viability, % Change versus Control (± s.e.m.): 112.3 ± 1.7%

## Nc1c(F)ccc2c1C(=O)N(C1CCC(=O)NC1=O)C2=O (stereo not drawn) [drawing 93]
[1]; [5]
  Nitrite, % Change versus Control (± s.e.m.): 100 ± 5.5 (N.S.) %
[3]; [5]
  TNF-a, % Change versus Control (± s.e.m.): 93 ± 4.1 (N.S.) %
[2]; [5]
  Viability, % Change versus Control (± s.e.m.): 90 ± 2.6 (N.S.) %

## Nc1c(F)ccc2c1C(=S)N(C1CCC(=S)NC1=O)C2=O (stereo not drawn) [Compound 32, 4-amino-5-fluoro-2-(2-oxo-6-thioxopiperidin-3-yl)-3-thioxoisoindolin-1-one]
[1]
  nitrite levels (in words): modest efficacy

## Nc1c(F)ccc2c1C(=O)N(C1CCC(=O)NC1=O)C2=O (stereo not drawn) [Compound 31, 4-amino-2-(2,6-dioxopiperidin-3-yl)-5-fluoroisoindoline-1,3-dione]
[1]
  nitrite levels (in words): surpassed by counterparts 3′ and 26

## CC1(C)[C@H]2CC[C@@H](CN3C(=O)c4c(F)ccc(F)c4C3=O)[C@@H]1C2 [Compound 19, 2-(((1S,2R,5S)-6,6-dimethylbicyclo[3.1.1]heptan-2-yl)methyl)-4,7-difluoroisoindoline-1,3-dione]
[1]; [4]
  nitrite level, % of vehicle control: 79 ± 2%
[1]; [6]
  nitrite level, % of vehicle control: 63 ± 3%
[1]; [7]
  nitrite level, % of vehicle control: 22 ± 1%
[3]; [4]
  TNF-α % Δ: 102 ± 2%
[3]; [6]
  TNF-α % Δ: 82 ± 2%
[2]; 1 μM
  Cell Viability % Δ: 98 ± 2%
[2]; 10 μM
  Cell Viability % Δ: 93 ± 4%
[2]; 30 μM
  Cell Viability % Δ: 67 ± 3%

## CC(C)Nc1ccc(F)c2c1C(=S)N(C1CCC(=S)NC1=O)C2=O (stereo not drawn) [Compound 28, 7-fluoro-4-(isopropylamino)-2-(2-oxo-6-thioxopiperidin-3-yl)-3-thioxoisoindolin-1-one]
[1]; LPS-activated RAW 264.7 cells
  Nitrite, % Change versus Control (± s.e.m.): 32.3 ± 1.1%
[3]; LPS-activated RAW 264.7 cells
  TNF-a, % Change versus Control (± s.e.m.): 74.7 ± 2.3%
[2]; LPS-activated RAW 264.7 cells
  Viability, % Change versus Control (± s.e.m.): 74.1 ± 4.2%

## CC1(C)[C@H]2CC[C@@H](CN3C(=O)c4c(F)c(F)c(F)c(F)c4C3=O)[C@@H]1C2 [Compound 13, 2-(((1S,2R,5S)-6,6-dimethylbicyclo[3.1.1]heptan-2-yl)methyl)-4,5,6,7-tetrafluoroisoindoline-1,3-dione]
[1]; [4]
  nitrite level, % of vehicle control: 31 ± 3%
[1]; 1 μM
  nitrite inhibitory activity (comparison in words): more potent nitrite inhibitory activity
[3]; [4]
  TNF-α % Δ: 62 ± 3%
[2]; 1 μM
  Cell Viability % Δ: 78 ± 3%

## O=C1c2c(F)ccc(F)c2C(=O)N1C1CC2CCC1C2 (stereo not drawn) [Compound 22, 2-Endo-(bicyclo[2.2.1]heptan-2-yl)-4,7-difluoroisoindoline-1,3-dione]
[1]; [4]
  nitrite level, % of vehicle control: 103 ± 5%
[1]; [6]
  nitrite level, % of vehicle control: 104 ± 2%
[1]; [7]
  nitrite level, % of vehicle control: 50 ± 3%
[3]; [4]
  TNF-α % Δ: 102 ± 5%
[3]; [6]
  TNF-α % Δ: 87 ± 5%

## Nc1cccc2c1C(=O)N(C1CCC(=O)NC1=O)C2=O (stereo not drawn)
[1]; [5]
  Nitrite, % Change versus Control (± s.e.m.): 91 ± 1.6 (N.S.) %
[3]; [5]
  TNF-a, % Change versus Control (± s.e.m.): 95 ± 4.8 (N.S.) %
[2]; [5]
  Viability, % Change versus Control (± s.e.m.): 95 ± 1.2 (N.S.) %

## Nc1ccc(F)c2c1C(=S)N(C1CCC(=S)NC1=O)C2=O (stereo not drawn) [drawing 92]
[1]; [5]
  Nitrite, % Change versus Control (± s.e.m.): 22 ± 1.7 ( **** ) %
[3]; [5]
  TNF-a, % Change versus Control (± s.e.m.): 109 ± 2.4 (N.S.) %
[2]; [5]
  Viability, % Change versus Control (± s.e.m.): 95 ± 3.0 (N.S.) %

## Nc1c(F)ccc2c1C(=S)N(C1CCC(=S)NC1=O)C2=O (stereo not drawn) [drawing 94]
[1]; [5]
  Nitrite, % Change versus Control (± s.e.m.): 40 ± 1.2 (N.S.) $ %
[3]; [5]
  TNF-a, % Change versus Control (± s.e.m.): 114 ± 3.9 (N.S.) %
[2]; [5]
  Viability, % Change versus Control (± s.e.m.): 92 ± 1.6 (N.S.) %

## C[C@H]1[C@H](N2C(=O)c3c(F)ccc(F)c3C2=O)C[C@@H]2C[C@H]1C2(C)C [Compound 17, 4,7-Difluoro-2-((1R,2R,3R,5S)-2,6,6-trimethylbicyclo[3.1.1]heptan-3-yl) isoindoline-1,3-dione]
[1]; [4]
  nitrite level, % of vehicle control: 90 ± 5%
[1]; [6]
  nitrite level, % of vehicle control: 54 ± 3%
[3]; [4]
  TNF-α % Δ: 95 ± 3%
[3]; [6]
  TNF-α % Δ: 77 ± 3%
[2]; 1 μM
  Cell Viability % Δ: 100 ± 4%
[2]; 10 μM
  Cell Viability % Δ: 81 ± 5%

## Nc1ccc(F)c2c1C(=O)N(C1CCC(=S)NC1=O)C2=O (stereo not drawn) [Compound 29, 4-amino-7-fluoro-2-(2-oxo-6-thioxopiperidin-3-yl) isoindoline-1,3-dione]
[1]; LPS-activated RAW 264.7 cells
  Nitrite, % Change versus Control (± s.e.m.): 59.0 ± 1.6%
[2]; LPS-activated RAW 264.7 cells
  Viability, % Change versus Control (± s.e.m.): 112.4 ± 2.9%

## O=C1c2c(F)ccc(F)c2C(=O)N1C1CC2CCC1C2 (stereo not drawn) [Compound 21, 2-Exo-(bicyclo[2.2.1]heptan-2-yl)-4,7-difluoroisoindoline-1,3-dione]
[1]; [4]
  nitrite level, % of vehicle control: 98 ± 7%
[1]; [6]
  nitrite level, % of vehicle control: 127 ± 2%
[1]; [7]
  nitrite level, % of vehicle control: 83 ± 10%
[3]; [4]
  TNF-α % Δ: 90 ± 1%
[3]; [6]
  TNF-α % Δ: 90 ± 1%

## O=C1NC(=S)CCC1N1C(=O)c2c(F)ccc([N+](=O)[O-])c2C1=O (stereo not drawn) [Compound 24, 4-fluoro-7-nitro-2-(2-oxo-6-thioxopiperidin-3-yl) isoindoline-1,3-dione]
[1]; LPS-activated RAW 264.7 cells
  Nitrite, % Change versus Control (± s.e.m.): 4.7 ± 1.0%
[3]; LPS-activated RAW 264.7 cells
  TNF-a, % Change versus Control (± s.e.m.): 51.3 ± 3.8%

## O=C1c2c(F)c(F)c(F)c(F)c2C(=O)N1C1CC2CCC1C2 (stereo not drawn) [Compound 15, 2-Exo-(bicyclo[2.2.1]heptan-2-yl)-4,5,6,7-tetrafluoroisoindoline-1,3-dione]
[1]; [4]
  nitrite levels: 25-36%
  nitrite level, % of vehicle control: 25 ± 2%
[1]; 1 μM
  nitrite inhibitory activity (comparison in words): more potent nitrite inhibitory activity; also recorded: slightly more potent than diastereomer 16
[3]; [4]
  TNF-α level: 55-74%
  TNF-α % Δ: 71 ± 2%
